Residue numbers refer to the chain shown, from its start. Numbers in names are those of the source.
Columns and labels:
[1] = Plasma estradiol levels after s.c. estradiol benzoate; format: in vivo, rat; conditions: OVX rats, mean±SEM
[2] = tested on: TG neurons; assay: PRL release from cultured TG neurons (RIA); format: cell-based, rat; conditions: 300 nM capsaicin or 25 mM KCl; for release of immunoreactive PRL: neurons from OVX rats cultured in the absence of E2; for PRL released from TG neurons: neurons of proestrous rats cultured with 50 nM E2, 15 min
Protocol: PRL is known to be released from cells of the anterior pituitary (Zacur et al. 1976) and from extrapituitary sites (Ben-Jonathan et al., 2002; Zinger et al., 2003; Torner et al., 2004). To determine whether PRL protein is present in a releasable pool in TG sensory neurons, cultured TG neurons derived either from proestrous rats (cultured in the presence of 50 nM E2) or from OVX rats (cultured without E2) were exposed to 300 nM capsaicin or 25 mM KCl buffer. The results obtained from these experiments are depicted in FIG. 2D, which indicate that a substantial amount of PRL is released from TG neurons of proestrous rats cultured in the presence of E2 upon stimulation with either capsaicin (158±12% of vehicle) or KCL (154±16% of vehicle). […] Data are presented as mean % of basal release±SEM (n=6/group, *=p<0.05 and **=p<0.01; one-way ANOVA with Bonferroni's post hoc test).
Rat trigeminal ganglia (TG) primary cultures: The TG from ovariectomized or intact female rats were quickly removed after decapitation and neuronal cultures were prepared as previously described (Fehrenbacher et al., 2005; Patwardhan et al., 2005). The trypsin treatment was omitted in TG cultures prepared for electrophysiological recording and Ca^2+ imaging. Cells were plated on 24 well Poly-D-Lysine coated plates (for iCGRP experiments), 6 well Poly-D-Lysine plates (for PRL release experiments), Poly-D-Lysine/laminin-coated coverslips (for single cell studies) or 10 cm plates (for phosphorylation experiments), respectively. The TG cultures were maintained at 37° C. and 5% CO2. […] The media were replaced at the end of 24 h and then 48 h later.
PRL Release Experiments: These experiments were performed at day 5 with TG cultures from OVX or intact female rats using Krebs buffer (NaCl 135 mM, KCl 3.5 mM, MgCl2 1 mM, NaH2PO4 1 mM, CaCl2 2.5 mM, BSA 0.1%, dextrose 3.3 mM, ascorbic acid 0.1 mM, HEPES 10 mM, thiorphan 16 μM; pH 7.4). After two initial washes, a 15 min baseline sample was collected. Cells were then exposed to 300 nM capsaicin (Sigma) or 25 mM KCl and incubated at 37° C. for an additional 15 min followed by collection of the samples. The 1 ml collected samples were lyophilized and resuspended in 250 ul of water and immediately frozen in −80° C. Frozen samples were sent to Dr. A. F. Parlow (NHPP, Harbor-UCLA) to have levels of PRL determined by a well-validated radioimmunoassay (RIA) with sensitivity range from 1-100 ng/ml. Results are representative of 6 independent experiments.

[3] = molecular target: T1, PRL-R (Rattus norvegicus, UniProt P05710); assay: Calcium imaging, block of PRL potentiation by PRL-R antagonist; format: cell-based; conditions: for block of PRL potentiation of capsaicin-evoked Ca2+ influx: antagonist 800 nM co-treated with PRL 40 nM, capsaicin 30 nM
T1 construct: endogenous in cells; host or cells: primary rat trigeminal ganglion neurons
T1 sequence (P05710 20-610): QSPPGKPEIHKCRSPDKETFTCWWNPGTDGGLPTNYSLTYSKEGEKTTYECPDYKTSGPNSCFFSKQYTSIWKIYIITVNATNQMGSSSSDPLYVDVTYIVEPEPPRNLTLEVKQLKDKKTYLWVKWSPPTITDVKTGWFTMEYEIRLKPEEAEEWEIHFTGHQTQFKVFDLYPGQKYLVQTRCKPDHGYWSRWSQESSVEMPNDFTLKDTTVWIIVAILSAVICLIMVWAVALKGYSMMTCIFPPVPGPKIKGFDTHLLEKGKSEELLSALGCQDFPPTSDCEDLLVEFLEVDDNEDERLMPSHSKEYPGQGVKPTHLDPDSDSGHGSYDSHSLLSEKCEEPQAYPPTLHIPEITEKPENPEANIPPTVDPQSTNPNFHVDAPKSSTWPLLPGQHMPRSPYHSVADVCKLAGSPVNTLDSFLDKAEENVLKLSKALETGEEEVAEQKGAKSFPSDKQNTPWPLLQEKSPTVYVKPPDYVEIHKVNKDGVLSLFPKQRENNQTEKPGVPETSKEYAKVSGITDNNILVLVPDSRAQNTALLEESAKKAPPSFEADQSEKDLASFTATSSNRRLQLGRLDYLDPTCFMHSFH
Protocol: To determine whether PRL augmentation of capsaicin responses occurs through the PRL-R (i.e., whether PRL-signaling could account for the observed effects of PRL on nociceptors sensitization), Ca^2+ imaging experiments were performed on neurons in the presence of a molar excess of a full PRL-R antagonist (Δ 1-9-G129R-hPRL) (Bernichtein et al., 2003; Goffin et al., 2005). Cultured neurons were treated as described in the previous experiment. In addition, neurons were co-treated with PRL and the PRL-R antagonist 1-9-Δ-G 129R-hPRL (800 nM). […] Data are presented as mean % of vehicle±SEM (n=19-40, *=p<0.05; two-way ANOVA).
Calcium Imaging: TG cells cultured on coverslips were loaded with the cell-permeable calcium sensitive dye FURA 2-AM (1 ug/ml) (Molecular Probes, Eugene, Oreg.) for 30 min at 37° C. in Standard External Solution (SES) of the following composition in mM: 140 NaCl, 5 KCl, 2 CaCl2, 1 MgCl2, 10 glucose and 10 HEPES, pH 7.4. Coverslips containing cells were placed in a chamber with constant infusion of SES. Images were captured by a Nikon Eclipse TE-2000 microscope fitted with a 20×/NA 0.75 Fluor objective. Fluorescence images were collected in 5 sec intervals throughout the experiment, analyzed, and the F340/F380 ratio calculated by the Methafluor Software (MethaMorph, Web Universal Imaging Corporation, Downingtown, Pa.). Capsaicin was delivered locally to the cells, whereas PRL was delivered into the bath solution. The magnitude of calcium influx was determined by subtracting the averaged baseline 30 sec prior to the capsaicin stimulus from the peak achieved by the capsaicin stimulation for each cell (ratiometric method, ΔF340/F380).

[4] = tested on: TG neurons; assay: Patch clamp, capsaicin-induced currents (Icap); format: cell-based, rat
Protocol: Since application of PRL rapidly increases capsaicin-induced calcium accumulation and neuropeptide release, the role of PRL in modulating capsaicin-induced currents (Icap) was examined. TRPV1 desensitization of cultured TG neurons was induced through the repeated application of 100 nM capsaicin to the cultures (Vellani et al., 2001; Bonnington and McNaughton, 2003). The sub-maximal concentration of capsaicin used was effective in inducing desensitization and permitted the investigation PRL-evoked re-sensitization or further sensitization of TRPV1. […] Data are presented as mean±SEM of PRL-treated ΔIcap (3rd Icap-2^ndIcap) normalized to vehicle treated ΔIcap, (n=8-12/group, *=p<0.05 and **=p<0.01; two-way ANOVA). […] Acutely dissociated TG neurons from female rats were locally pretreated with vehicle or PRL (40 nM) for 60 sec, washed for 60 sec and subjected to a single capsaicin pulse (40 sec, 0.1 nM-5 μM). Data are shown as mean±SEM (n=12-20/group, *=p<0.05 and ***=p<0.001 vehicle vs. PRL; two-way ANOVA). FIGS. 5C and 5D depict representative traces of Icap recordings from intact (FIG. 5C) and OVX (FIG. 5D) female rat TG neurons. Concentration of applied CAP and PRL are indicated. The duration CAP and PRL treatment was 30 sec and 60 sec, respectively. The magnitude of the second capsaicin-evoked inward currents (Icap) peak was subtracted from the third Icap peak to calculate the difference (ΔIcap). Data were normalized to the vehicle treated ΔIcap.
(§1) Patch Clamp Electrophysiology: All recordings were performed in whole-cell voltage-clamp (Vh=−60 mV) configuration. Recordings were acquired at 22-24° C. from the somata of neurons (15-45 pF) using an Axopatch200B amplifier and pCLAMP9.0 software (Axon Instruments, Union City, Calif.). Data were filtered at 0.5 kHz and sampled at 2 kHz. Borosilicate pipettes (Sutter, Novato, Calif.) were polished to resistances of 3-5 MΩ in pipette solution. Access resistance was compensated (40-80%) to 7-10 MΩ values when appropriate. Cell diameters were calculated using d=√[100*Cm/π], where d (μm) is cell diameter and Cm (pF) is membrane capacitance.
Standard external solution (SES) had the composition as described above. […] Drugs were applied using a fast, computer controlled pressure-driven 8-channel system (ValveLink8; AutoMate Scientific, San Francisco, Calif.).
FIG. 11B summarizes the effect of adding rhPRL on Icap of cultured TG neurons from male, female and OVX female rats. Number of recorded neurons and neurons in which effects were observed are indicated above the bars. The recordings were performed in whole-cell voltage clamp c(Vh=−60 mV) configuration. Solutions are SES and SIS.

[5] = molecular target: T1, PRL-R; assay: Patch clamp Icap, G129R-PRL against PRL sensitization; format: cell-based
Protocol: as §1
Since it is possible that this effect is observed only in full PRL-R antagonists, it is of interest to determine the effectiveness of partial PRL-R antagonists in blocking PRL-mediated nociceptor sensitization. To this end, the ability of the partial PRL […] (G129R-PRL) to inhibit PRL-induced increase in sensitivity to capsaicin was assessed. FIG. 10 summarizes the effect of administering PRL, human G129R-PRL, or their combination, on Icap. G129R-PRL acts as either a partial or full antagonist, depending on the cellular context of the experimental system (Goffin, Bernichtein et al. 2003).

## C[C@]12CC[C@@H]3c4ccc(OC(=O)c5ccccc5)cc4CC[C@H]3[C@@H]1CC[C@@H]2O [17-beta-estradiol 3-benzoate]
[1]; 2 μg/kg s.c. daily for 10 days
  plasma estradiol levels: 1.89 ± 0.36 pg/mL
[1]; 20 μg/kg s.c. daily for 10 days
  plasma estradiol levels: 59 ± 17.1 pg/mL
[1]; 80 μg/kg s.c. daily for 10 days
  plasma estradiol levels: 110 ± 36.6 pg/mL

## [Cl-].[K+] [KCL, KCl]
[2]
  release of immunoreactive PRL: no detectable release
  PRL released from TG neurons: 154±16 % of vehicle

## COc1cc(CNC(=O)CCCC/C=C/C(C)C)ccc1O [capsaicin]
[2]
  release of immunoreactive PRL: no detectable release
  PRL released from TG neurons: 158±12 % of vehicle

B1: Δ 1-9-G129R-hPRL: full PRL-R antagonist, human PRL variant synthesized as described (Bernichtein et al., 2003; Goffin et al., 2005) (protein)
chain: LPICPGGAARCQVTLRDLFDRAVVLSHYIHNLSSEMFSEFDKRYTHGRGFITKAINSCHTSSLATPEDKEQAQQMNQKDFLSLIVSILRSWNEPLYHLVTEVRGMQEAPEAILSKAVEIEEQTKRLLERMELIVSQVHPETKENEIYPVWSGLPSLQMADEESRLSAYYNLLHCLRRDSHKIDNYLKLLKCRIIHNNNC
[3]; 800 nM, without PRL
  effect of antagonist on its own on capsaicin-evoked Ca2+ influx: had no effect on its own
[3]
  block of PRL potentiation of capsaicin-evoked Ca2+ influx: significantly blocked PRL potentiation of capsaicin-evoked Ca^2+ influx
[3]; listed as 1-9-Δ-G129R-hPRL
  block of PRL potentiation of capsaicin-evoked Ca2+ influx: significantly blocked

B2: rhPRL: recombinant human PRL (protein, UniProt P01236 29-227, looked up)
Prolactin: B1 chain with R129G
[4]; cultured TG neurons from male and female rats, capsaicin 100 nM (FIG. 11A)
  sensitization of capsaicin-evoked Icap: is able to sensitize cultured neurons isolated from male and female TG neurons
[4]; male and female TG neurons, varying rhPRL concentrations
  concentration dependence of Icap increase: dose-dependent increases in Icap

B3: G129R-PRL: human prolactin variant, partial or full PRL-R antagonist / partial agonist; sequence in FIG. 9B (SEQ ID NO: 48) (protein, listed as Homo sapiens)
chain: B1 chain
[5]; 3 of 3 examined neurons
  effect on Icap in the absence of rPRL: displayed partial agonist effects
[5]; G129R-PRL 16 nM co-applied with rPRL 4 nM, observed in 6 of 7 neurons
  reduction of the PRL effect on Icap: about 40%

— US7507716B2, “Method for treating pain with prolactin antagonists” (Board of Regents, The University of Texas System, priority 2005, dated 2009)
